Experimental findings from patent publication US20170348381A1, “FORMULATION” (NovaBiotics Limited, priority 2016, published 2017) are described below.

Common to all, as to assay type: cell-based
The test system of test [1] is A. fumigatus. Put plainly: Antimicrobial susceptibility testing (CLSI M27-A3/M38-A2, chequerboard), MIC100, Example 2. The note with it: for MIC100 of the antifungal in combination with Novamycin (+): in combination with MIC100 and sub-MIC100 concentrations of Novamycin; for MIC: Aspergillus fumigatus. The protocol:
(§1) Antimicrobial susceptibility testing was performed based on CLSI approved standards M27-A3 and M38-A2. The effects of antimicrobial combinations were evaluated using a chequerboard method (Burkhart et al., 2006) in CLSI conditions.
(§2) Table 1. The MIC100 of clinically used antifungals individually (−) and in combination (+) with Novamycin®.
(§3) (−)=MIC100 (μg/mL) of the antifungal alone (+)=MIC100 (μg/mL) of the antifungal in combination with Novamycin®—=Not analysed

Test [2] has as its system C. albicans. The test is described as above. The note with it: for MIC100 of the antifungal in combination with Novamycin (+): in combination with MIC100 and sub-MIC100 concentrations of Novamycin; for MIC: Candida albicans. Here is the method: as §1, §2, §3
For test [3], the system named is E. dermatitidis. The description is as above. The note with it: for MIC100 of the antifungal in combination with Novamycin (+): in combination with MIC100 and sub-MIC100 concentrations of Novamycin; for MIC: Exophiala dermatitidis. The protocol: as §1, §2, §3
Test [4] concerns A. fumigatus. Put plainly: Neutral, additive or synergistic effect of combinations of novamycin plus other antifungal agents, Example 3. The note with it: for Antifungal MIC100: antifungal alone; for MIC100 in Combination, AF: antifungal in combination with Novamycin; for Effect: combination of the antifungal with Novamycin. Here is the method:
as §1
(§4) The neutral, additive or synergistic effect of combinations of novamycin plus other antifungal agents was studied.

Test [5] concerns C. albicans. Described as above. The note with it: for Antifungal MIC100: antifungal alone; for MIC100 in Combination, AF: antifungal in combination with Novamycin; for Effect: combination of the antifungal with Novamycin. The protocol:
as §1, §4

Turning to `C[C@@H]1[C@H](O)[C@@H](C)/C=C/C=C/C=C/C=C/C=C/C=C/C=C/[C@H](O[C@@H]2O[C@H](C)[C@@H](O)[C@H](N)[C@@H]2O)C[C@@H]2O[C@](O)(C[C@@H](O)C[C@@H](O)[C@H](O)CC[C@@H](O)C[C@@H](O)CC(=O)O[C@H]1C)C[C@H](O)[C@H]2C(=O)O` [AmB, amphotericin B], the “MIC100 of the antifungal alone (−)” value in test [1] (antifungal alone) stood at 0.25 µg/mL; in test [2] (antifungal alone), 0.25 µg/mL; in test [3] (antifungal alone), 1 µg/mL. The “MIC100 of the antifungal in combination with Novamycin (+)” value (shortened to “MIC100 of the antifungal in combination”) is 0.03 µg/mL in test [1], 0.13 µg/mL in test [2] and 0.12 µg/mL in test [3]. Also, the Antifungal MIC100 worked out at 0.25 µg/mL in test [4] and 0.5 µg/mL in test [5]. In addition, the MIC100 in Combination, AF in test [4] stood at 0.03 µg/mL; in test [5], 0.05 µg/mL. The Effect entry in test [4] and in test [5] was “Additive” in each case.
As a reminder, the MIC is the least concentration at which growth counts as inhibited. As for `CC[C@H](C)C[C@H](C)CCCCCCCCC(=O)N[C@H]1C[C@@H](O)[C@@H](NCCN)NC(=O)[C@@H]2[C@@H](O)CCN2C(=O)[C@H]([C@H](O)CCN)NC(=O)[C@H]([C@H](O)[C@@H](O)c2ccc(O)cc2)NC(=O)[C@@H]2C[C@@H](O)CN2C(=O)[C@H]([C@@H](C)O)NC1=O` [CFN, caspofungin], the MIC in test [1] (antifungal alone) stood at 0.06 µg/mL; in test [2] (antifungal alone) it was 0.5 µg/mL; in test [3] (antifungal alone), 31.2 µg/mL. For the same compound, the “MIC100 of the antifungal in combination” value in test [1] came to 0.06 µg/mL; in test [2], 0.03 µg/mL; in test [3] it was 3.94 µg/mL. In addition, the results for the Antifungal MIC100 in test [4] and in test [5] were 0.06 µg/mL and 0.5 µg/mL, respectively. For the same compound, the MIC100 in Combination, AF in test [4] was determined as 0.04 µg/mL; in test [5], 0.03 µg/mL. In addition, the Effect result in test [4] and in test [5] was “Additive” each time.
As to `CCC(C)n1ncn(-c2ccc(N3CCN(c4ccc(OCC5COC(Cn6cncn6)(c6ccc(Cl)cc6Cl)O5)cc4)CC3)cc2)c1=O` (stereo not drawn) [ITZ, itraconazole], the MIC in test [3] (antifungal alone) is 4 µg/mL. Further, in test [3], the “MIC100 of the antifungal in combination” value is 2 µg/mL.
For `CC[C@@H]([C@H](C)O)n1ncn(-c2ccc(N3CCN(c4ccc(OC[C@@H]5CO[C@@](Cn6cncn6)(c6ccc(F)cc6F)C5)cc4)CC3)cc2)c1=O` [PCZ, pozaconazole], the MIC in test [1] (antifungal alone) turned out to be 0.25 µg/mL; in test [2] (antifungal alone), 0.13 µg/mL. Moreover, the entries for the “MIC100 of the antifungal in combination” value in test [1] and in test [2] were 0.125 µg/mL and 0.06 µg/mL, respectively. In addition, the values for the Antifungal MIC100 in test [4] and in test [5] were 0.25 µg/mL and under 0.03 µg/mL, respectively. Besides, the MIC100 in Combination, AF in test [4] was 0.125 µg/mL; in test [5], under 0.03 µg/mL. Moreover, the Effect entry was “Additive” in test [4] and “Neutral” in test [5].
Take `C[C@@H](c1ncncc1F)[C@](O)(Cn1cncn1)c1ccc(F)cc1F` [Voriconazole]: in test [4], the Antifungal MIC100 was 0.25 µg/mL; the MIC100 in Combination, AF came to 0.25 µg/mL; the Effect entry was “Neutral”.
